Results from PubChem BioAssay (NCI).
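Growth conditions: 96-well plates. Treatment: test compound, 48 hours, 5 concentrations. Analysis: linear interpolation between bracketing concentrations; unreached endpoints set to highest concentration. GI50 = concentration required for 50% inhibition of growth. TGI is the concentration that stops growth completely.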

Experiments:
Assay in all cases: NCI-60 cell line screen, 48 h
A498 renal = tested on: A498 renal
LOX IMVI melanoma = tested on: LOX IMVI melanoma
NCI-H460 lung = tested on: NCI-H460 lung
CAKI-1 renal = tested on: CAKI-1 renal
SNB-75 CNS = tested on: SNB-75 CNS
MOLT-4 leukemia = tested on: MOLT-4 leukemia
SW-620 colon = tested on: SW-620 colon
HOP-62 NSCLC = tested on: HOP-62 NSCLC
M14 melanoma = tested on: M14 melanoma
SF-295 CNS = tested on: SF-295 CNS
SK-MEL-5 melanoma = tested on: SK-MEL-5 melanoma
NCI-H226 lung = tested on: NCI-H226 lung
MDA-MB-231 breast = tested on: MDA-MB-231 breast
KM12 colon = tested on: KM12 colon
OVCAR-3 ovarian = tested on: OVCAR-3 ovarian
SF-268 CNS = tested on: SF-268 CNS
SF-539 CNS = tested on: SF-539 CNS
MCF7 breast = tested on: MCF7 breast
SNB-19 CNS = tested on: SNB-19 CNS
IGROV1 ovarian = tested on: IGROV1 ovarian
HS 578T breast = tested on: HS 578T breast
MALME-3M melanoma = tested on: MALME-3M melanoma
PC-3 prostate = tested on: PC-3 prostate
RPMI-8226 leukemia = tested on: RPMI-8226 leukemia
MDA-MB-435 = tested on: MDA-MB-435
HL-60(TB) leukemia = tested on: HL-60(TB) leukemia
SK-MEL-2 melanoma = tested on: SK-MEL-2 melanoma
NCI-H23 lung = tested on: NCI-H23 lung
U251 CNS = tested on: U251 CNS
OVCAR-5 ovarian = tested on: OVCAR-5 ovarian
BT-549 breast = tested on: BT-549 breast
OVCAR-4 ovarian = tested on: OVCAR-4 ovarian
HT29 colon = tested on: HT29 colon
OVCAR-8 ovarian = tested on: OVCAR-8 ovarian
DU-145 prostate = tested on: DU-145 prostate
NCI-H522 lung = tested on: NCI-H522 lung
A549 NSCLC = tested on: A549 NSCLC
NCI/ADR-RES ovarian = tested on: NCI/ADR-RES ovarian
UACC-257 melanoma = tested on: UACC-257 melanoma
HCT-15 colon = tested on: HCT-15 colon
SK-MEL-28 melanoma = tested on: SK-MEL-28 melanoma
ACHN renal = tested on: ACHN renal
SR leukemia = tested on: SR leukemia
T-47D breast = tested on: T-47D breast
CCRF-CEM leukemia = tested on: CCRF-CEM leukemia
HCT-116 colon = tested on: HCT-116 colon
HCC-2998 colon = tested on: HCC-2998 colon
UO-31 renal = tested on: UO-31 renal
UACC-62 melanoma = tested on: UACC-62 melanoma
SN12C renal = tested on: SN12C renal
RXF 393 renal = tested on: RXF 393 renal
EKVX NSCLC = tested on: EKVX NSCLC
HOP-92 NSCLC = tested on: HOP-92 NSCLC
TK-10 renal = tested on: TK-10 renal
COLO 205 colon = tested on: COLO 205 colon
786-0 renal = tested on: 786-0 renal

## O=C(CCN1CCCC1)Nc1ccc2c(Nc3ccc(F)cc3)c3ccccc3nc2c1
A498 renal
  GI50: 1.03 µM
  TGI: 4.89 µM
LOX IMVI melanoma
  GI50: 0.606 µM
  TGI: 2.01 µM
NCI-H460 lung
  GI50: 0.211 µM
  TGI: 1.38 µM
CAKI-1 renal
  GI50: 1.26 µM
  TGI: 2.6 µM
SNB-75 CNS
  GI50: 1.37 µM
  TGI: 2.72 µM
MOLT-4 leukemia
  GI50: 0.133 µM
  TGI: 3.02 µM
SW-620 colon
  GI50: 0.64 µM
  TGI: 2.29 µM
HOP-62 NSCLC
  GI50: 0.864 µM
  TGI: 3.7 µM
M14 melanoma
  GI50: 1.64 µM
  TGI: 3.53 µM
SF-295 CNS
  GI50: 1.05 µM
  TGI: 2.32 µM
SK-MEL-5 melanoma
  GI50: 1.53 µM
  TGI: 2.88 µM
NCI-H226 lung
  GI50: 1.41 µM
  TGI: 3.21 µM
MDA-MB-231 breast
  GI50: 1.48 µM
  TGI: 3.34 µM
KM12 colon
  GI50: 1.48 µM
  TGI: 4.11 µM
OVCAR-3 ovarian
  GI50: 1.68 µM
  TGI: 4.21 µM
SF-268 CNS
  GI50: 1.19 µM
  TGI: 2.82 µM
SF-539 CNS
  GI50: 1.61 µM
  TGI: 3.05 µM
MCF7 breast
  GI50: 0.147 µM
  TGI: 1.89 µM
SNB-19 CNS
  GI50: 0.836 µM
  TGI: 3.53 µM
IGROV1 ovarian
  GI50: 1.03 µM
  TGI: 3.27 µM
HS 578T breast
  GI50: 1.74 µM
  TGI: 4.54 µM
MALME-3M melanoma
  GI50: 1.57 µM
  TGI: 2.99 µM
PC-3 prostate
  GI50: 1.34 µM
  TGI: 3.97 µM
RPMI-8226 leukemia
  GI50: 0.981 µM
  TGI: 5.51 µM
MDA-MB-435
  GI50: 1.58 µM
  TGI: 3 µM
HL-60(TB) leukemia
  GI50: 1.51 µM
  TGI: 3.75 µM
SK-MEL-2 melanoma
  GI50: 1.85 µM
  TGI: 3.64 µM
NCI-H23 lung
  GI50: 1.08 µM
  TGI: 2.63 µM
U251 CNS
  GI50: 1.17 µM
  TGI: 3.03 µM
OVCAR-5 ovarian
  GI50: 1.95 µM
  TGI: 4.7 µM
BT-549 breast
  GI50: 1.73 µM
  TGI: 4.28 µM
OVCAR-4 ovarian
  GI50: 1.21 µM
  TGI: 3.03 µM
HT29 colon
  GI50: 0.734 µM
  TGI: 3.72 µM
OVCAR-8 ovarian
  GI50: 1.56 µM
  TGI: 8.73 µM
DU-145 prostate
  GI50: 0.513 µM
  TGI: 2.03 µM
NCI-H522 lung
  GI50: 1.31 µM
  TGI: 3.25 µM
A549 NSCLC
  GI50: 0.424 µM
  TGI: 3.62 µM
NCI/ADR-RES ovarian
  GI50: 2.11 µM
  TGI: 7.4 µM
UACC-257 melanoma
  GI50: 1.97 µM
  TGI: 4.12 µM
HCT-15 colon
  GI50: 0.699 µM
  TGI: 2.53 µM
SK-MEL-28 melanoma
  GI50: 1.7 µM
  TGI: 3.24 µM
ACHN renal
  GI50: 0.526 µM
  TGI: 1.98 µM
SR leukemia
  GI50: 0.174 µM
  TGI: 2.3 µM
T-47D breast
  GI50: 1.01 µM
  TGI: 3.79 µM
CCRF-CEM leukemia
  GI50: 0.274 µM
  TGI: 11.1 µM
HCT-116 colon
  GI50: 0.906 µM
  TGI: 2.58 µM
HCC-2998 colon
  GI50: 1.16 µM
  TGI: 2.52 µM
UO-31 renal
  GI50: 1.16 µM
  TGI: 2.55 µM
UACC-62 melanoma
  GI50: 1.55 µM
  TGI: 3.1 µM
SN12C renal
  GI50: 0.523 µM
  TGI: 2.43 µM
RXF 393 renal
  GI50: 1.23 µM
  TGI: 2.64 µM
EKVX NSCLC
  GI50: 1.89 µM
  TGI: 4.69 µM
HOP-92 NSCLC
  GI50: 1.18 µM
  TGI: 2.68 µM
TK-10 renal
  GI50: 1.66 µM
  TGI: 3.97 µM
COLO 205 colon
  GI50: 1.3 µM
  TGI: 3.51 µM
786-0 renal
  GI50: 1.21 µM
  TGI: 2.77 µM
